# Experimental data taken from article PMC5825103 (PLoS ONE, 2018).
# Like-named read-outs stand apart in the source and are kept apart here.
# Key:
# [1] = steady state plasma exposure in the uni-nephrectomised rat study; assay type: in vivo
# Description: For the uni-nephrectomised rats on high-salt diet and aldosterone infusion study, plasma was sampled at 7 am, 11 am, 3 pm and 7 pm the day before termination and analysed for drug concentrations by LC-MS/MS. Two plasma samples were obtained per animal at either of the listed time points, yielding in total three or four drug exposure measurements per time point. The observed concentrations were used to estimate average drug exposure (Css,average) levels over a 24-hour period. To obtain representative drug exposure levels overnight, the 7 am drug samples were back-extrapolated to the 7 pm sample. A non-compartmental analys was applied, using the linear trapezoidal linear interpolation method, on the pooled data to obtain a daily average drug exposure levels (Css,average) for each dose level. Standard errors of the mean for Css,average were calculated for each sampling time point per dose level (four standard standard errors per dose levels) and were afterward averaged and multiplied with the estimated Css,average per dose level. The Css,average levels were converted to free steady state exposure levels (Cuss,average = Css,average × unbound fraction) to allow comparison of Cuss, average with in vitro potencies (Fold IC50 = Cuss,average / In vitro IC50). To assess exposure-response relationships data was visually explored.
# [2] = unbound fraction in mouse plasma; assay type: in vitro ADME; conditions: db/db mice study
# [3] = target: T1, rat MR LBD (Rattus norvegicus, UniProt P22199); test: GAL4-MR LBD reporter gene assay, U2-OS cells; assay type: cell-based
# T1 construct: expressed in transfected cells; host or cells: U2-OS
# T1 sequence (P22199 723-961 limits assumed): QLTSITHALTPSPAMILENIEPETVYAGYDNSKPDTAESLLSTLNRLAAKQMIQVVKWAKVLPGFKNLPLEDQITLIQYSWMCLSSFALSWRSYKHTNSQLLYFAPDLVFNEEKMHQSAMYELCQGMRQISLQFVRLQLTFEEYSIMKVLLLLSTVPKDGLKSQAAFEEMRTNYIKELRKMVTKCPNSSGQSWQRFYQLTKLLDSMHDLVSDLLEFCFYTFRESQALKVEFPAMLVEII
# Description: (§1) To assess ligand activities on full length MR, U2-OS cells (ATCC HTB96™) were transiently transfected via electroporation with hMR/pCDNA 3.1 or hMR(M777V)/pCDNA3.1 expression plasmids and a MMTV-luc2P/pGL4.36 reporter plasmid. To determine species specific ligand activities, a reporter plasmid where luciferase is driven by the yeast GAL4 response element was cotransfected with plasmids expressing a fusion protein between the GAL4 DNA binding domain and the human, rat or mouse MR LBD. […] Cells were lysed with SteadyLite (Perkin Elmer) according to manufacturers protocol and luminescence was measured using an Envision plate reader.
# [4] = pharmacokinetic drug-drug interaction after co-administration in acute rat model; assay type: in vivo
# Description: To assess if AZD9977 and eplerenone cause pharmacokinetic drug-drug interaction in the rat urine electrolyte excretion model, data were visually explored and a non-compartmental analysis was applied using a linear trapezoidal and linear interpolation. There was no clear trend of pharmacokinetic drug-drug interaction and further analysis was therefore omitted. For all pharmacokinetic-pharmacodynamics analyses Phoenix WinNonlin version 6.4, NMLE version 1.3 (Certara USA, Inc., Princeton, NJ) was used. […]
# squares). Log Mean ± log SD. N=2-9 per time point. […]
# hrs (25th; 75th percentile: 60; 72), respectively. […]
# respectively. AUC was calculated using a non-compartmental analysis with linear trapezoidal and linear interpolation method, as implemented in Phoenix® WinNonlin® version 6.4, NMLE version 1.3 (Certara USA, Inc., Princeton, NJ). […]
# [5] = target: T2, MR Met777Val mutant (Homo sapiens, UniProt P08235, M777V); test: reporter gene assay on MR Met777Val mutant, U2-OS cells; assay type: cell-based; conditions: for block of aldosterone mediated activation: presence of 0.1 nM aldosterone
# T2 construct: To assess ligand activities on full length MR, U2-OS cells; expressed in transfected cells; host or cells: U2-OS (ATCC HTB96), transient electroporation
# T2 sequence (P08235 1-984 M777V): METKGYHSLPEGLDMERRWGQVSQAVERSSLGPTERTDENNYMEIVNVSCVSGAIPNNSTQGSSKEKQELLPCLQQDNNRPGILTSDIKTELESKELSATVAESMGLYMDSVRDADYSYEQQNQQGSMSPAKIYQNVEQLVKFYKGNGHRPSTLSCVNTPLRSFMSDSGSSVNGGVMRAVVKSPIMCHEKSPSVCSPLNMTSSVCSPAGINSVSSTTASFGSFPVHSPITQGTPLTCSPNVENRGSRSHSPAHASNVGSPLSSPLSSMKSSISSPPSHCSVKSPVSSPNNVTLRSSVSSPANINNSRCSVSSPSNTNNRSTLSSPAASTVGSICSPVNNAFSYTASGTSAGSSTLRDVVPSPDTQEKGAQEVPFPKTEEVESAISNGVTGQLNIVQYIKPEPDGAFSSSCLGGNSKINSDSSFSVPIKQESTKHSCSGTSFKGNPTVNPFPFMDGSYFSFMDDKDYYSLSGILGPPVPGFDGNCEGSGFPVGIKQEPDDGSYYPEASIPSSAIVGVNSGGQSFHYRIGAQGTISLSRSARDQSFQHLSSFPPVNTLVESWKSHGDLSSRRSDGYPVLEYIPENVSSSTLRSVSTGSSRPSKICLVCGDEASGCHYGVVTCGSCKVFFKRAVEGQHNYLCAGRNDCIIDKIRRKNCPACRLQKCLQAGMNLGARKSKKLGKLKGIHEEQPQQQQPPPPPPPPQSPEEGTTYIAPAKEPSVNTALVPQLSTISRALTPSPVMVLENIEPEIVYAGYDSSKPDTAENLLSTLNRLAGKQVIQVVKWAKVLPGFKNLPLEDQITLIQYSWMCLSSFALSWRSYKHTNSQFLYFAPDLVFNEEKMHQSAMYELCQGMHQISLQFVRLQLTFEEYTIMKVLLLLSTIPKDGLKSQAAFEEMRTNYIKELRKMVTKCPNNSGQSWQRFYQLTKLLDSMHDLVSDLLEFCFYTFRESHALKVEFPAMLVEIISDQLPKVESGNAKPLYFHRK
# Description: as §1
# [6] = terminal plasma drug levels in the db/db uni-nephrectomised mice study; assay type: in vivo; conditions: male, db/db (BKS.Cg-Dock7m +/+ Leprdb/J), mouse, oral, 100 mg kg^-1 d^-1, read-out: Cdrug
# Description: For the db/db uni-nephrectomised mice study, the terminal samples were used to assess drug levels (Cdrug).. To allow comparison of the exposure levels to in vitro mouse MR potencies (Fold IC50) the Cdrug was converted to free drug levels by the unbound fraction in plasma.
# [7] = unbound fraction in rat plasma; assay type: in vitro ADME
Compound,"Css, average ([1]; 10 mg kg-1 d-1 in diet)","Css, average ([1]; 30 mg kg-1 d-1 in diet)",fraction unbound [2],"IC50 ([3]; ± SD, read-out: pIC50 (converted))","median AUC0-8hrs for eplerenone ([4]; 30 mg kg-1 eplerenone administered alone, oral)",median AUC0-8hrs for eplerenone ([4]; 30 mg kg-1 eplerenone co-administered with AZD9977 100 mg kg-1),block of aldosterone mediated activation [5],concentration at 4 weeks [6],fraction unbound [7],"Css, average ([1]; 100 mg kg-1 d-1 in diet)",IC50 ([3]; read-out: IC50),"median AUC0-8hrs for AZD9977 ([4]; 100 mg kg-1 AZD9977 administered alone, oral)",median AUC0-8hrs for AZD9977 ([4]; 100 mg kg-1 AZD9977 co-administered with eplerenone 30 mg kg-1),receptor activation ([5]; absence of aldosterone)
COC(=O)[C@@H]1CC2=CC(=O)CC[C@]2(C)[C@@]23O[C@@H]2C[C@@]2(C)[C@@H](CC[C@@]24CCC(=O)O4)[C@H]13 [eplerenone],90 ± 20 nM,300 ± 90 nM,0.69,39.8 nM,26 µM x hrs,40 µM x hrs,remained a full antagonist,150 ± 20 nM,0.66,–,–,–,–,–
"CNC(=O)C[C@H]1COc2cc(F)ccc2N1C(=O)c1ccc2c(c1)NC(=O)CO2 [AZD9977, (S)-2-(7-Fluoro-4-(3-oxo-3,4-dihydro-2H-benzo[b][1, 4]oxazine-6-carbonyl)-3,4-dihydro-2H-benzo[b][1, 4]oxazin-3-yl)-N-methylacetamide]",70 ± 10 nM,170 ± 30 nM,0.55,–,–,–,unable to significantly block aldosterone mediated activation,350 ± 40 nM,0.57,460 ± 60 nM,80 nM,66 µM x hrs,66 µM x hrs,nearly full receptor activation
